Data set [1] addresses T1, ATP-dependent translocase ABCB1 (Homo sapiens, UniProt P08183). The experiment in a line: TP_TRANSPORTER: transepithelial transport (basal to apical) in Caco-2 cells. Format: functional, cell-based. A general note: Caco-2 cells form a polarised layer with tight junctions and transporters.
The target of data set [2] is T1, ATP-dependent translocase ABCB1. The experiment in a line: TP_TRANSPORTER: inhibition of Rhodamine 123 transepithelial transport (basal to apical) (Rhodamine 123: 5 uM) in Caco-2 cells. Format: functional, cell-based.

Structures are written as SMILES.

We go through one molecule from ChEMBL document CHEMBL2073747, “Methadone inhibits rhodamine123 transport in Caco-2 cells” (Drug Metab Dispos, 2001).

T1 sequence (P08183 whole entry): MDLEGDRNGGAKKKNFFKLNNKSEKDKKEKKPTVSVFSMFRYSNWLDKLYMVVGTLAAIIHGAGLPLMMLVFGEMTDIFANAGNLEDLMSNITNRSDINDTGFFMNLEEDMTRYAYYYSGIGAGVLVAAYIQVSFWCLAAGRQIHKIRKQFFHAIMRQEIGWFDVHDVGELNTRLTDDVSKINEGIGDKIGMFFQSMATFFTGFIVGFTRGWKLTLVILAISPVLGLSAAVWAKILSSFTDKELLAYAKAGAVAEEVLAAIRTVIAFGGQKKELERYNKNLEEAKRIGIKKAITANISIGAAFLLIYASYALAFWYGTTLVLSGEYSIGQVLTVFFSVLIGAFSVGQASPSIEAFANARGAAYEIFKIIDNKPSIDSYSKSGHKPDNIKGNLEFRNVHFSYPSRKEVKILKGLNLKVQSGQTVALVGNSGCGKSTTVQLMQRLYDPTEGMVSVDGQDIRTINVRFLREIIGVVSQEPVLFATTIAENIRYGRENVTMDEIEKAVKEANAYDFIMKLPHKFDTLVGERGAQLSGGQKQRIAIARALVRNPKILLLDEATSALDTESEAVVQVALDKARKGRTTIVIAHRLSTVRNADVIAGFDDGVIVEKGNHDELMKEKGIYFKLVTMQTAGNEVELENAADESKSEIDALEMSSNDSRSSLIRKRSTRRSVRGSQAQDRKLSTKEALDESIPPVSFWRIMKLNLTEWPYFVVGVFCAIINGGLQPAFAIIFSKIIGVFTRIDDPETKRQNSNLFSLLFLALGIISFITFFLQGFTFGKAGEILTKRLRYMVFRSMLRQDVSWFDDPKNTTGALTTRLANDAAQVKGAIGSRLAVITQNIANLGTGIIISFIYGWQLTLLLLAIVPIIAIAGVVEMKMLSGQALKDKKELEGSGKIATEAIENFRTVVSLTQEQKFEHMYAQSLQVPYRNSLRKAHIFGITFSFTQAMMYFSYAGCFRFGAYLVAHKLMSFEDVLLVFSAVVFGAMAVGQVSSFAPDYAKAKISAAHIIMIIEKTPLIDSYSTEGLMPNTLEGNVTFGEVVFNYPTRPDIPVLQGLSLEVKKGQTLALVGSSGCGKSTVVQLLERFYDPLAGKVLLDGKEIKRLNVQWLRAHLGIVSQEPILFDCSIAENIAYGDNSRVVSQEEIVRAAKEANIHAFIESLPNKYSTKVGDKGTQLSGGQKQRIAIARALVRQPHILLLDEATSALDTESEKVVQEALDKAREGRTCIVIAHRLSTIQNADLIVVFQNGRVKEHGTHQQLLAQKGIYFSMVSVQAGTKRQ

By IC50 is commonly meant the concentration that gives 50% inhibition. As to `CCC(=O)C(CC(C)N(C)C)(c1ccccc1)c1ccccc1` (configuration not stated) [METHADONE], in data set [1], the Activity entry is “is not a substrate [-]”. Moreover, the midpoint of inhibition in data set [2], the IC50, lay at 7.5 µM.
